Data taken from ChEMBL document CHEMBL1156259, “Synthesis and biological evaluation of amidine, guanidine, and thiourea derivatives of 2-amino(6-trifluoromethoxy)benzothiazole as neuroprotective agents potentially useful in brain diseases” (J Med Chem, 2010).
Active and inactive are the calls of the source. The rule behind the calls is not given here.

Assays:
Rattus norvegicus [1] = species: Rattus norvegicus; settings: Wistar, Piriform cortex, at 50 µM
Description: Inhibition of voltage-dependent Na(+) channel in Wistar rat brain piriform cortex layer 2 assessed as inhibition of transient Na+ current amplitude at 50 uM under holding potential of -80 mV by whole cell patch clamp assay

Cortex [2] = assay: Neuroprotective activity in Sprague-Dawley rat brain cortex slices assessed as reduction of oxygen/glucose deprivation-induced glutamate release at minimal effective concentration; assay type: functional; set-up: scale not given: the % may be the effect or the level left
cells = assay type: tissue-based; settings: Rattus norvegicus, Wistar, Piriform cortex
Description: Inhibition of voltage-dependent Ca(+) channel in Wistar rat brain piriform cortex acutely dissociated neurons assessed as inhibition of high voltage activated Ba+ current amplitude at under holding potential of -60 mV by whole cell patch clamp assay

Cortex [3] = assay: Neuroprotective activity in Sprague-Dawley rat brain cortex slices assessed as interval of drug concentration causing reduction of oxygen/glucose deprivation-induced LDH release; assay type: functional
Cortex [4] = assay: Neuroprotective activity in Sprague-Dawley rat brain cortex slices assessed as reduction of oxygen/glucose deprivation-induced LDH release at minimal effective concentration; assay type: functional; set-up: scale not given: the % may be the effect or the level left
Rattus norvegicus [5] = species: Rattus norvegicus; settings: Wistar, Piriform cortex, at 60 µM
Description: Inhibition of voltage-dependent Ca(+) channel in Wistar rat brain piriform cortex acutely dissociated neurons assessed as effect on high voltage activated Ba+ current deactivation at 60 uM by whole cell patch clamp assay

Cortex [6] = assay: Neuroprotective activity in Sprague-Dawley rat brain cortex slices assessed as drug concentration causing maximum reduction of oxygen/glucose deprivation-induced glutamate release; assay type: functional; settings: read-out: MEC
Cortex [7] = assay: Neuroprotective activity in Sprague-Dawley rat brain cortex slices assessed as interval of drug concentration causing reduction of oxygen/glucose deprivation-induced glutamate release; assay type: functional
[8] = Antioxidant activity assessed as ABTS+ radical scavenging activity by spectrophotometry relative to 1 mM Trolox; assay type: functional
Rattus norvegicus [9] = species: Rattus norvegicus; settings: Wistar, Piriform cortex, at 60 µM; remark: listed apart in the source
Description: Inhibition of voltage-dependent Ca(+) channel in Wistar rat brain piriform cortex acutely dissociated neurons assessed as effect on half activation potential of high voltage activated Ba+ current at 60 uM by whole cell patch clamp assay

Rattus norvegicus [10] = species: Rattus norvegicus; settings: Wistar, Piriform cortex, at 60 µM; remark: listed apart in the source
Description: Inhibition of voltage-dependent Ca(+) channel in Wistar rat brain piriform cortex acutely dissociated neurons assessed as effect on high voltage activated Ba+ current activation speed at 60 uM by whole cell patch clamp assay

Cortex [11] = assay: Neuroprotective activity in Sprague-Dawley rat brain cortex slices assessed as drug concentration causing maximum reduction of oxygen/glucose deprivation-induced LDH release; assay type: functional; settings: read-out: MEC
[12] = biological target: Nitric oxide synthase 1 (Rattus norvegicus) (UniProt P29476); assay: Inhibition of nNOS in Sprague-Dawley rat brain assessed as nitric oxide-mediated conversion of oxyhemoglobin to methemoglobin
Sequence of Nitric oxide synthase 1 (Rattus norvegicus) (P29476 whole entry): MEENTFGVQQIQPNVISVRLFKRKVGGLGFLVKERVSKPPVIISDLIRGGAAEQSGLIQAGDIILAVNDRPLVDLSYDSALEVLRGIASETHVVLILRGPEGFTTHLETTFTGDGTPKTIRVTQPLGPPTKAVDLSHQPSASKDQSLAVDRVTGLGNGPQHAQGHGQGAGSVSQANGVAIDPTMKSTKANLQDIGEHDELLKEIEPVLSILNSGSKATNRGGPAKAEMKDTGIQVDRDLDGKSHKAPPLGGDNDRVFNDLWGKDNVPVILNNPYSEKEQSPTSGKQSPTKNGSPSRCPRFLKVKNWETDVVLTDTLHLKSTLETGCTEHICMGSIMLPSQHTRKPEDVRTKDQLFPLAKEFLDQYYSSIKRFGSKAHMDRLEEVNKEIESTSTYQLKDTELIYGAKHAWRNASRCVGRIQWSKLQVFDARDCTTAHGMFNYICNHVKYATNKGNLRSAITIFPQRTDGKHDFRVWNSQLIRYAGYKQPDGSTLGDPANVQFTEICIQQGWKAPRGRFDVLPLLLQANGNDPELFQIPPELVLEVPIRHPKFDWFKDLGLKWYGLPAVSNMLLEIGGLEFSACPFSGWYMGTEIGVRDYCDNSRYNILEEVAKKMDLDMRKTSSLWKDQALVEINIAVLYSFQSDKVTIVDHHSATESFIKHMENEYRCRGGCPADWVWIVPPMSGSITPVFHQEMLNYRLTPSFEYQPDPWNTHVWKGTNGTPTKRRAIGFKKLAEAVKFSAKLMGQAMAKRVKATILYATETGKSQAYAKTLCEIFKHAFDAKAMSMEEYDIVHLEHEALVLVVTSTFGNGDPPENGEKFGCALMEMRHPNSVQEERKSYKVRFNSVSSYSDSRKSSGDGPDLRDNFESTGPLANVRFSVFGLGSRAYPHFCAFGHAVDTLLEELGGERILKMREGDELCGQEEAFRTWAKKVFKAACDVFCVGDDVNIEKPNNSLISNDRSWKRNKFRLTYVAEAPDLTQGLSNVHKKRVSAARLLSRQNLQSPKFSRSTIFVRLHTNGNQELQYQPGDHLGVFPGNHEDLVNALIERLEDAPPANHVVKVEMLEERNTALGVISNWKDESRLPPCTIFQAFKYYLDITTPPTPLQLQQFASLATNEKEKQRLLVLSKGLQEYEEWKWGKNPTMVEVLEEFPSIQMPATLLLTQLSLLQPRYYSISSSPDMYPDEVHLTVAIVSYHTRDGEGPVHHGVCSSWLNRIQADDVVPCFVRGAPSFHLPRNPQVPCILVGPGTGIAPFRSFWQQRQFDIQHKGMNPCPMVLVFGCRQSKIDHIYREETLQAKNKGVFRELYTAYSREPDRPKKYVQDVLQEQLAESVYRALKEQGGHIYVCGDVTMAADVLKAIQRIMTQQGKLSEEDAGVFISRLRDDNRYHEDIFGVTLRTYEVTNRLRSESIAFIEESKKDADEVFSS

## Nc1nc2ccc(OC(F)(F)F)cc2s1 [RILUZOLE]
Rattus norvegicus [1]
  inhibition: > 50%
Cortex [2]
  Activity: 100%
cells
  IC50: 34.2 µM
Cortex [3]
  Activity: 0.1 µM
Cortex [4]
  Activity: 100%
Rattus norvegicus [5]
  inhibition: Active
Cortex [6]
  minimal effective concentration: 1 µM
Cortex [7]
  Activity: 1 µM
[8]
  inhibition: inactive
Rattus norvegicus [9]
  inhibition: inactive
Rattus norvegicus [10]
  inhibition: inactive
Cortex [11]
  minimal effective concentration: 10 µM

## C/C(=N\c1nc2ccc(OC(F)(F)F)cc2s1)N(C)C
[12]
  inhibition: inactive
Cortex [2]
  Activity: 100%
Cortex [3]
  Activity: 0.1 µM
Cortex [4]
  Activity: 56.9%
Cortex [6]
  minimal effective concentration: 0.1 µM
Cortex [7]
  Activity: 0.1 µM
Cortex [11]
  minimal effective concentration: 0.1 µM

## CC(C)NC(=S)Nc1nc2ccc(OC(F)(F)F)cc2s1
Cortex [2]
  Activity: 80.3%
Cortex [3]
  Activity: 0.01 µM
Cortex [4]
  Activity: 50%
Cortex [6]
  minimal effective concentration: 0.1 µM
Cortex [7]
  Activity: 0.01 µM
[8]
  Ratio: 0.64
Cortex [11]
  minimal effective concentration: 0.01 µM

## O=c1c2ccccc2[se]n1-c1ccccc1
[8]
  Ratio: 0.32

## CCNC(=S)Nc1nc2ccc(OC(F)(F)F)cc2s1
Cortex [2]
  Activity: 80.1%
Cortex [3]
  Activity: 0.1 µM
Cortex [4]
  Activity: 73.1%
Cortex [6]
  minimal effective concentration: 1 µM
Cortex [7]
  Activity: 1 µM
[8]
  Ratio: 0.88
Cortex [11]
  minimal effective concentration: 0.1 µM

## CCCNC(=S)Nc1nc2ccc(OC(F)(F)F)cc2s1
Rattus norvegicus [1]
  inhibition: 15%
Cortex [2]
  Activity: 94.2%
Cortex [3]
  Activity: 0.01 µM
Cortex [4]
  Activity: 60.9%
Cortex [6]
  minimal effective concentration: 0.01 µM
Cortex [7]
  Activity: 0.01 µM
[8]
  Ratio: 0.5
Cortex [11]
  minimal effective concentration: 0.01 µM

## CCCCNC(=S)Nc1nc2ccc(OC(F)(F)F)cc2s1
Rattus norvegicus [1]
  inhibition: 0%
Cortex [2]
  Activity: 100%
cells
  IC50: 24.1 µM
Cortex [3]
  Activity: 0.01 µM
Cortex [4]
  Activity: 32%
Rattus norvegicus [5]
  inhibition: Active
Cortex [6]
  minimal effective concentration: 1 µM
Cortex [7]
  Activity: 0.01 µM
[8]
  Ratio: 0.98
Rattus norvegicus [9]
  inhibition: inactive
Rattus norvegicus [10]
  inhibition: inactive
Cortex [11]
  minimal effective concentration: 0.01 µM
